# Experimental data: publication PMC4870556, “Triazole resistance mediated by mutations of a conserved active site tyrosine in fungal lanosterol 14α-demethylase” (Scientific Reports, 2016)
# Read-outs that look alike come from different tables or passages of the source.
# Tests used:
# [1] = target: T1, wild type ScErg11p6 × His (Saccharomyces cerevisiae, UniProt P10614); assay: Type II difference spectra triazole binding to affinity purified wild type enzyme; settings: for Hill number / IC50 / Kd: wild-type enzyme 1 μM; for IC50 / Kd: Hill equation fit; for IC50: IC50 value is denoted as [Azole]0.5; for Kd: standard error in brackets; for ΔAmax of type II difference spectra: wild-type enzyme, Ni-NTA affinity purified
# T1 construct: full-length Saccharomyces cerevisiae hexahistidine-tagged Erg11p (ScErg11p6 × His); made in house; host or cells: Saccharomyces cerevisiae strain AD3ΔScErg11p (overexpression from the PDR5 locus, native ERG11 deleted)
# T1 sequence (P10614 whole entry): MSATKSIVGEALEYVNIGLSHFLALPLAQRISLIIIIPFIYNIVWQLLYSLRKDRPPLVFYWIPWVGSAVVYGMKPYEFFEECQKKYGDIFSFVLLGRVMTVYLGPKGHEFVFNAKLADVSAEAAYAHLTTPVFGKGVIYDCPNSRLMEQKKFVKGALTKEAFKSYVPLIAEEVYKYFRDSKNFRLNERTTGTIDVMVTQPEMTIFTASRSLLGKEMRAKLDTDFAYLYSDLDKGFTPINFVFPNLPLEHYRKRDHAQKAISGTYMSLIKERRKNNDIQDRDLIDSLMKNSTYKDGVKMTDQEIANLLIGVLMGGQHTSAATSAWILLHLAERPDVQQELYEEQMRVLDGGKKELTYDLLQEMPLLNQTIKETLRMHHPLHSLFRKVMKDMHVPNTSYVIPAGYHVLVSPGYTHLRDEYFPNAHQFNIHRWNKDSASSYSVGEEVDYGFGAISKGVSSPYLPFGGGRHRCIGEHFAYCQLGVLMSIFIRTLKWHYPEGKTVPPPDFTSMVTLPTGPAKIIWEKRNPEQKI
# Experimental: (§1) Ni-NTA affinity purified mutant and wild type ScErg11p6 × His preparations (1 μM) were used to detect and quantitate type II azole binding. The spectral shift of the Soret peak from 417 nm to 421–424 nm in cytochrome P450s is also detected by the type II difference spectra. This change is associated with the replacement of a water molecule coordinated to the heme iron with the azole heterocycle. Type II difference spectra were obtained for FLC, VCZ, ITC and PCZ binding to both mutant enzymes. The binding of FLC is shown as an example (Fig. 2b). The type II difference spectra for the mutant enzymes were less intense than for the wild type enzyme. They gave 2–3-fold smaller differences in absorbance (ΔAmax), with peaks shifted from 428 nm for wild type enzyme to 424–425 nm for the mutant enzymes plus less well-defined troughs between 406–410 nm (Supplementary Table S3). […] These values indicate tight binding for each drug tested.
# (§2) The concentration of functional cytochrome P450 for drug binding studies was determined using the carbon monoxide binding spectra according to the protocol described by Guengerich et al.[33]. Affinity purified ScErg11p6 × His used for spectroscopic assays was eluted using affinity purification buffer containing 50 mM L-histidine instead of imidazole. L-histidine was removed from the sample by washing the enzyme with solubilisation buffer containing 16 mM DM using 50 kDa molecular-weight cut-off Amicon Ultra-4 centrifugal filters (Merck Millipore Ltd, Cork, Ireland). The removal of L-histidine was checked by taking the absolute spectra of the sample using the Ultrospec™ 6300 pro UV/Visible spectrophotometer. The heme peak for wild type protein with no ligand was at ~417 nm. With L-histidine bound the peak was detected at ~420 nm. Enzyme concentration was determined by saturating the sample cuvette with CO gas prior to the addition of sodium dithionite. The reference cuvette containing the same amount of enzyme was treated with sodium dithionite only. The P450 concentration was determined by measuring the difference in absorbance between 446 and 490 nm and using the extinction coefficient of 91 mM^−1 cm^−1 [58]. Absorption spectra were recorded with a Cary 1 Bio UV-visible spectrophotometer using 10 mm path UV transparent plastic cuvettes (GE Healthcare Life Sciences, UK). Difference spectra were measured using 1 μM ScErg11p6 × His wild type or Y140F/H enzyme titrated with the triazole drugs ITC, PCZ, VCZ and FLC. Triazole drugs dissolved in DMSO were added to the sample cuvette, with the same amount of DMSO added to the reference cuvette. The total amount of DMSO was <2% of the total volume in the cuvette. Difference spectra between 350–500 nm were recorded and the trough-peak absorbance changes were used to plot binding curves. The dissociation constant Kd for type II binding of triazole drugs was calculated using GraphPad Prism 6 Software (GraphPad Prism, San Diego, CA) by applying the Hill equation using the formula ΔA = ΔAmax [Azole]^n/([Azole]^n + Kd^n), with ΔAmax being the maximum change in absorbance and [Azole] the azole concentration.
# [2] = system: C. albicans Erg11p (CaErg11p) Y132F/H; settings: Y132F/H mutations detected in clinical isolates; cited from earlier work
# AfCYP51B [3] = target: AfCYP51B; design: method as in PMID 26459890; settings: type II binding, Ni-NTA affinity purified enzyme; cited from earlier work
# ScErg11p6 × His Y140F = target: T2, ScErg11p6 × His Y140F (Saccharomyces cerevisiae, UniProt P10614, Y140F); assay: Type II difference spectra triazole binding to affinity purified Y140F mutant enzyme; settings: for Hill number / IC50 / Kd: Y140F enzyme 1 μM; for IC50 / Kd: Hill equation fit; for IC50: IC50 value is denoted as [Azole]0.5; for Kd: standard error in brackets; for ΔAmax of type II difference spectra: Y140F enzyme, Ni-NTA affinity purified
# T2 construct: full-length Saccharomyces cerevisiae hexahistidine-tagged Erg11p (ScErg11p6 × His); made in house; host or cells: Saccharomyces cerevisiae strain AD3ΔScErg11_Y140F (native ERG11 deleted)
# T2 sequence (P10614 whole entry Y140F): as the sequence (P10614 whole entry) above, with Y140F counted along it
# Experimental: as §1, §2
# AD3ΔScErg11p_Y140H = assay: Broth microdilution MIC80, strain overexpressing Y140H enzyme; format: cell-based; settings: Saccharomyces cerevisiae, 48 h, pH 6.8, 80% growth inhibition, SD medium pH 6.8, 30 °C, native ERG11 deleted
# Experimental: (§3) Susceptibilities to triazole drugs of S. cerevisiae AD3Δ strains overexpressing Erg11p6 × His Y140F/H, but with the native ERG11 deleted, were measured as liquid MIC80 values (Supplementary Table S2). Overexpression of ScErg11p6 × His Y140F in the AD3ΔScErg11p_Y140F strain conferred 2-fold lower susceptibility to FLC than the strain overexpressing wild type ScErg11p6 × His i.e. MIC80 of 4.0 μg/ml and 2.1 μg/ml, respectively. The same mutant conferred a 1.7-fold reduction in susceptibility to VCZ. The MIC80 values were 0.42 μg/ml for the strain overexpressing ScErg11p6 × His Y140F and 0.25 μg/ml for the strain overexpressing wild type ScErg11p6 × His.
# The S. cerevisiae AD2Δ host was used to create the strains used in this study. The strain was made by deletion of the HIS1 gene from the previously described ADΔ[49] strain. […]
# (§4) The susceptibilities of strains overexpressing wild type ScErg11p6 × His and ScErg11p6 × His Y140F/H to triazole drugs were measured as MIC80 values using broth microdilution assays. […] MIC80s to FLC, ITC and VCZ were determined in 96-well microtiter plates using SD buffered to pH 6.8 instead of RPMI[50]. […] Cell growth was assessed by measuring the OD600nm of wells using a BioTek Synergy™ 2 multi-mode plate reader (BioTek Instruments, Vermont, USA). Each MIC80 was determined using triplicate measurements for three clones of each strain in three separate experiments.
# AfCYP51B [4] = system: AfCYP51B; design: method as in PMID 26459890; settings: membrane preparations, enzyme heterologously expressed in E. coli; cited from earlier work
# AfCYP51A [5] = target: AfCYP51A; design: method as in PMID 26459890; settings: type II binding, cited from earlier work
# [6] = system: AD3ΔScErg11p (strain overexpressing wild type ScErg11p6 × His); assay: Broth microdilution MIC80, strain overexpressing wild type enzyme; format: cell-based; settings: Saccharomyces cerevisiae, 48 h, pH 6.8
# Experimental: as §3
# The S. cerevisiae AD2Δ host was used to create the strains used in this study. The strain was made by deletion of the HIS1 gene from the previously described ADΔ[49] strain. ADΔ and AD2Δ lack 7 major ATP-binding cassette transporters and the PDR3 gene. Both strains have the gain-of function pdr1–3 mutation in the PDR1 transcriptional regulator gene to provide constitutive overexpression of ScErg11p6 × His from the PDR5 locus. Yeast strains were grown on YPD medium: 1% (wt/vol) Bacto-yeast extract (BD Difco™ Laboratories Inc, Franklin Lakes, NJ), 2% (wt/vol) Bacto-peptone (BD Difco™) and 2% (wt/vol) glucose. Synthetic defined (SD) medium was used for selection of transformants. […]
# as §4
# AD3ΔScErg11p_Y140F = assay: Broth microdilution MIC80, strain overexpressing Y140F enzyme; format: cell-based, Saccharomyces cerevisiae; settings: for fold lower susceptibility (MIC80) than strain overexpressing wild type ScErg11p6 × His: Y140F strain vs wild type strain
# Experimental: as §3
# The S. cerevisiae AD2Δ host was used to create the strains used in this study. The strain was made by deletion of the HIS1 gene from the previously described ADΔ[49] strain. ADΔ and AD2Δ lack 7 major ATP-binding cassette transporters and the PDR3 gene. Both strains have the gain-of function pdr1–3 mutation in the PDR1 transcriptional regulator gene to provide constitutive overexpression of ScErg11p6 × His from the PDR5 locus. Yeast strains were grown on YPD medium: 1% (wt/vol) Bacto-yeast extract (BD Difco™ Laboratories Inc, Franklin Lakes, NJ), 2% (wt/vol) Bacto-peptone (BD Difco™) and 2% (wt/vol) glucose. Synthetic defined (SD) medium was used for selection of transformants. It contained 2% (wt/vol) glucose, 0.67% (wt/vol) yeast nitrogen base without amino acids (BD Difco™), 2% (wt/vol) agar (Oxoid Ltd., Hampshire, UK) and either uracil drop-out (Qbiogene, Irvine, CA) or histidine drop-out (Formedium™, Norfolk, UK) complete supplement mixture. Liquid SD media with complete supplement mixture (Formedium™) containing 10 mM MES and 20 mM HEPES buffered with TRIS to pH 6.8 was used for MIC80 determinations.
# The susceptibilities of strains overexpressing wild type ScErg11p6 × His and ScErg11p6 × His Y140F/H to triazole drugs were measured as MIC80 values using broth microdilution assays. The MIC80s were defined as 80% growth inhibition compared to no drug controls because triazole drugs are fungistatic rather than fungicidal and can give trailing growth. MIC80s to FLC, ITC and VCZ were determined in 96-well microtiter plates using SD buffered to pH 6.8 instead of RPMI[50]. Cells were seeded at OD600nm = 0.005 (1.5 × 10^4 CFU) and the plates were incubated in 30 °C with shaking at 200 rpm for 48 hrs. Cell growth was assessed by measuring the OD600nm of wells using a BioTek Synergy™ 2 multi-mode plate reader (BioTek Instruments, Vermont, USA). Each MIC80 was determined using triplicate measurements for three clones of each strain in three separate experiments.
# ScErg11p6 × His Y140H = target: T3, ScErg11p6 × His Y140H (Saccharomyces cerevisiae, UniProt P10614, Y140H); assay: Type II difference spectra triazole binding to affinity purified Y140H mutant enzyme; settings: for Hill number / IC50 / Kd: Y140H enzyme 1 μM; for IC50 / Kd: Hill equation fit; for IC50: IC50 value is denoted as [Azole]0.5; for Kd: standard error in brackets; for ΔAmax of type II difference spectra: Y140H enzyme, Ni-NTA affinity purified
# T3 construct: full-length Saccharomyces cerevisiae hexahistidine-tagged Erg11p (ScErg11p6 × His); made in house; host or cells: Saccharomyces cerevisiae strain AD3ΔScErg11_Y140H (native ERG11 deleted)
# T3 sequence (P10614 whole entry Y140H): as the sequence (P10614 whole entry) above, with Y140H counted along it
# Experimental: as §1, §2
# AfCYP51A [7] = settings: cited from earlier work
# [8] = Saccharomyces cerevisiae, 48 h, pH 6.8
Structure (SMILES),Hill number [1],IC50 [1],Kd [1],ΔAmax of type II difference spectra [1],Hill number (ScErg11p6 × His Y140F),IC50 (ScErg11p6 × His Y140F),Kd (ScErg11p6 × His Y140F),ΔAmax of type II difference spectra (ScErg11p6 × His Y140F),MIC80 (AD3ΔScErg11p_Y140H),MIC80 [6],MIC80 (AD3ΔScErg11p_Y140F; [8]),fold lower susceptibility (MIC80) than strain overexpressing wild type ScErg11p6 × His (AD3ΔScErg11p_Y140F),Hill number (ScErg11p6 × His Y140H),IC50 (ScErg11p6 × His Y140H),Kd (ScErg11p6 × His Y140H),ΔAmax of type II difference spectra (ScErg11p6 × His Y140H),further results
"OC(Cn1cncn1)(Cn1cncn1)c1ccc(F)cc1F [FLC, fluconazole]",3.0,430 nM,74 nM,0.048,1.86,330 nM,130 nM,0.023,3.4 µg/mL,2.1 µg/mL,4 µg/mL,2 fold,1.68,270 nM,110 nM,0.016,"fold increase in resistance [2]: 4 fold; Kd (AfCYP51B [3]): 4 µM; IC50 (AfCYP51B [4]): 500 nM; Kd (AfCYP51A [5]; Ni-NTA affinity purified enzyme): 12 µM; fold difference in Kd values AfCYP51A vs AfCYP51B (AfCYP51A [5]; Ni-NTA affinity purified enzymes): 3 fold; IC50 (AfCYP51A [7]; membrane preparations, enzyme heterologously expressed in E. coli): 17 µM; fold higher IC50 for AfCYP51A compared to AfCYP51B (AfCYP51A [7]; reconstituted membrane assay): 34 fold"
"CCC(C)n1ncn(-c2ccc(N3CCN(c4ccc(OCC5COC(Cn6cncn6)(c6ccc(Cl)cc6Cl)O5)cc4)CC3)cc2)c1=O (stereo not drawn) [ITC, itraconazole]",1.6,280 nM,123 nM,0.037,1.83,330 nM,130 nM,0.014,–,0.105 µg/mL,–,–,1.48,250 nM,130 nM,0.016,"MIC80 (AD3ΔScErg11p_Y140F; 80% growth inhibition, SD medium pH 6.8, 30 °C, 48 hrs, native ERG11 deleted): 0.09 µg/mL; MIC80 (AD3ΔScErg11p_Y140F; Saccharomyces cerevisiae, 80% growth inhibition, SD medium pH 6.8, 30 °C, 48 hrs, native ERG11 deleted, read-out: MIC80): 0.09 µg/mL"
"CC[C@@H]([C@H](C)O)n1ncn(-c2ccc(N3CCN(c4ccc(OC[C@@H]5CO[C@@](Cn6cncn6)(c6ccc(F)cc6F)C5)cc4)CC3)cc2)c1=O [PCZ, posaconazole]",2.2,320 nM,78 nM,0.031,1.57,290 nM,150 nM,0.016,–,–,–,–,1.57,230 nM,100 nM,0.016,–
"C[C@@H](c1ncncc1F)[C@](O)(Cn1cncn1)c1ccc(F)cc1F [VCZ, voriconazole]",2.7,400 nM,82 nM,0.051,2.60,270 nM,30 nM,0.019,0.29 µg/mL,0.25 µg/mL,0.42 µg/mL,1.7 fold,1.23,290 nM,220 nM,0.018,–
